Entries after “also recorded” stand apart in the source; their conditions may differ. *1 amine or outer side, *2 acyl side, *3 side chain or, on linkers, in order; H or OH if unused. Where a SMILES comes first, the peptide text is derived from it. Bridges are numbered along the chain shown (N, C = ends). Roman numbers before positions name the chains, in order. [ ]: non-standard residue; d: D form. Actinocin(9to1) = Cc1c2oc3c(C)ccc(C(=O)[*:1])c3nc-2c(C(=O)[*:2])c(N)c1=O; NMeV = CN[C@H](C(=O)O)C(C)C; Sar = CNCC(=O)O
Tested on: PMN suppressor phenotype (suppression of anti-CD3/CD28-stimulated T cell proliferation)
Test: Coculture of PMN with ascites supernatants and anti-CD3/CD28-stimulated T cells; T cell proliferation by [3H] thymidine incorporation
Assay type: cell-based, human
Details: for effect on ascites-induced PMN-mediated suppression: L-arginine 50 μM-1 mM, NAC 10-25 mM, DNase I 50-100 IU (n=3)
Description: Freshly isolated T cells (1e5) were stimulated with anti-CD3/CD28 Dynabeads (2.5 μl; Thermo Fisher Scientific) and cocultured with autologous PMN (1:1) and ascites supernatants (50% final well volume) in an incubator at 37° C., 5% CO2. After 72 h, [^3H] thymidine (1 μCi per well) was added and allowed to incorporate for 16-18 h. Cells were harvested onto a Filtermat and counted on a Beta counter. Results are expressed as net cpm [calculated by subtracting the average cpm of unstimulated T cells from the average cpm of stimulated T cells].
Where indicated, T cells, PMN, and ascites supernatants underwent various pretreatments. Where indicated, T cells were pretreated for lh with neutralizing antibody against ICAM-I (1-10 μg), IgG1 isotype (1-10 μg), or media (RPMI 1640, 5-10% heat-inactivated FBS, HEPES, sodium pyruvate, non-essential amino acids, and penicillin-streptomycin).
Where indicated, PMN were pretreated for lh with neutralizing antibody against CD11b (1-10 μg), TGF-beta receptor 1 (1-10 μg) or IgG1 isotype (1-10 μg); thapsigargin (THG, 0.5-2 μM), diphenyleneiodonium (DPI, 1-25 μM), N-Formylmethionine-leucyl-phenylalanine (fMLF, 1-100 nM), brefeldin-A (1-10 μg/mL), ER export inhibitor 1 (Exol, 20-75 μM), CI-amidine (10-20 μM), SNARE decoys: TAT-SNAP23 (0.6-0.9 μg/mL), TAT-SYN4 (0.6-0.9 μg/mL), TAT-GST (0.6-0.9 μg/mL) (produced as described in the laboratory of Dr. Kenneth McLeish), puromycin and actinomycin-D (1-5 μg/mL), or with media.
Where indicated, ascites supernatants were pretreated with heat (56° C., lh) to denature heat-labile constituents or proteinase-K (100 μM, 37° C., 12 h) to degrade proteins. Two formulations of compstatin, a peptide C3 inhibitor, were used: CS (250 μM, 30° C., 2 h, Tocris) and Cp40 (1.25-20 μM, 30° C., 2 h), as well as a scramble peptide. In separate studies, ascites supernatants were ultra-centrifuged (100,000g, 4° C., 1.5 h) to separate the membrane-rich (MR-ASC) and membrane-depleted (MD-ASC) fractions. In others, ascites supernatants were pretreated for lh with neutralizing antibody against C5 (0.5-1.0 μg, A217; Quidel, San Diego, Calif.) or C7 (0.5-1.0 μg, A221; Quidel) or IgG1 isotype (0.5-1.0 μg), or with OmCI (0.6-1.2 μM), a peptide C5 inhibitor derived from the saliva of Ornithodoros moubata (35, 36).

[1] = PMN pretreated, fMLF 100 nM, THG 1 μM, DPI 1 μM (n=7)
[2] = PMN pretreated, brefeldin-A 1-10 μg/mL, Exo1 20-75 μM (n=3)
[3] = PMN pretreated for 1 h prior to coculture, puromycin 1 μg, D-actinomycin 1 μg (n=8)
[4] = added to cocultures, indomethacin 10 μM, zileuton 50 μM, 1-MT 100 μM

## N-Formylmethionine-leucyl-phenylalanine [fMLF]
[1]
  effect on PMN suppressor phenotype: abrogated the PMN suppressor phenotype; also recorded: prevented induction of the PMN suppressor phenotype

## COC(=O)c1ccccc1NC(=O)c1ccc(F)cc1 [ER export inhibitor 1]
[2]
  effect on PMN suppressor phenotype: abrogated the suppressor phenotype
PMN pretreated, brefeldin-A 1-10 μg/mL, Exo1 20-75 μM (n=3), listed as Exo1
  effect on PMN suppressor phenotype: abrogated the PMN suppressor phenotype

## Cc1c2oc3c(C)ccc(C(=O)N[C@@H]4C(=O)N[C@H](C(C)C)C(=O)N5CCC[C@H]5C(=O)N(C)CC(=O)N(C)[C@@H](C(C)C)C(=O)O[C@@H]4C)c3nc-2c(C(=O)N[C@@H]2C(=O)N[C@H](C(C)C)C(=O)N3CCC[C@H]3C(=O)N(C)CC(=O)N(C)[C@@H](C(C)C)C(=O)O[C@@H]2C)c(N)c1=O [actinomycin D] (I: T[dV]P[Sar][NMeV] / II: T[dV]P[Sar][NMeV]; ester I:1-I:C, II:1-II:C; linker I:N-II:N via Actinocin(9to1))
[3]
  effect on PMN suppressor phenotype: variable abrogation of the suppressor phenotype
PMN pretreated for 1 h prior to coculture, puromycin 1 μg, D-actinomycin 1 μg (n=8), listed as D-actinomycin
  effect on PMN suppressor phenotype: had more variable effects

## Cn1cc(CC(N)C(=O)O)c2ccccc21 (racemic) [1-methyl-DL-tryptophan]
[4]
  effect on PMN suppressor phenotype: did not reverse the phenotype; also recorded: had no effect on the PMN suppressor phenotype

## CC[C@H](C)[C@H](N)C(=O)N[C@H]1CSSC[C@@H](C(=O)N[C@H](C(N)=O)[C@@H](C)O)NC(=O)[C@H](CCCN=C(N)N)NC(=O)[C@H](Cc2cnc[nH]2)NC(=O)[C@H](Cc2cnc[nH]2)NC(=O)CNC(=O)[C@H](Cc2c[nH]c3ccccc23)NC(=O)[C@H](CC(=O)O)NC(=O)[C@H](CCC(N)=O)NC(=O)[C@H](C(C)C)NC(=O)[C@H](C(C)C)NC1=O [CS, compstatin]
Added to ASC 2 h prior to coculture with PMN and T cells, CS 250 μM, Cp40 20 μM, scramble peptide 20 μM
  effect on PMN suppressor phenotype: abrogated the PMN suppressor phenotype
Added to ASC 2 h prior to coculture with PMN and T cells, CS 250 μM, Cp40 20 μM, scramble peptide 20 μM, listed as compstatin
  effect on PMN suppressor phenotype: completely abrogated the PMN suppressor phenotype

## C[C@H]1CCC/C=C/[C@@H]2C[C@H](O)C[C@H]2[C@H](O)/C=C/C(=O)O1 [brefeldin-A]
[2]
  effect on PMN suppressor phenotype: abrogated the PMN suppressor phenotype

## CC(=O)N[C@@H](CS)C(=O)O [N-acetylcysteine]
Added to cocultures
  effect on ascites-induced PMN-mediated suppression: did not reverse ascites-induced PMN-mediated suppression
Added to cocultures, listed as NAC
  effect on ascites-induced PMN-mediated suppression: did not reverse suppression

## c1ccc2c(c1)[I+]c1ccccc1-2 [diphenyleneiodonium]
[1]
  effect on PMN suppressor phenotype: abrogated the PMN suppressor phenotype
PMN pretreated, fMLF 100 nM, THG 1 μM, DPI 1 μM (n=7), listed as DPI
  effect on PMN suppressor phenotype: did abrogate the PMN suppressor phenotype

## CC(c1cc2ccccc2s1)N(O)C(N)=O (stereo not shown) [zileuton]
[4]
  effect on PMN suppressor phenotype: did not reverse the phenotype; also recorded: had no effect on the PMN suppressor phenotype

## COc1ccc2c(c1)c(CC(=O)O)c(C)n2C(=O)c1ccc(Cl)cc1 [indomethacin]
[4]
  effect on PMN suppressor phenotype: had no effect on the PMN suppressor phenotype
Added to cocultures, indomethacin 10 μM, zileuton 50 μM, 1-MT 100 μM, listed as Indomethacin
  effect on PMN suppressor phenotype: did not reverse the phenotype

## C/C=C(/C)C(=O)O[C@H]1C(C)=C2[C@H]([C@@H]1OC(=O)CCCCCCC)[C@@](C)(OC(C)=O)C[C@H](OC(=O)CCC)[C@@]1(O)[C@H]2OC(=O)[C@@]1(C)O [thapsigargin]
[1]
  effect on PMN suppressor phenotype: abrogated the PMN suppressor phenotype

## NC(=O)[C@H](CCCN=C(N)CCl)NC(=O)c1ccccc1 [CI-amidine]
PMN pretreated with CI-amidine (10-20 μM) for 1 h prior to coculture (n=3)
  effect on PMN suppressor phenotype: did not abrogate the PMN suppressor phenotype; also recorded: had no effect on the PMN suppressor phenotype

## COc1ccc(C[C@H](N)C(=O)N[C@H]2[C@@H](O)[C@H](n3cnc4c(N(C)C)ncnc43)O[C@@H]2CO)cc1 [puromycin]
[3]
  effect on PMN suppressor phenotype: abrogated the PMN suppressor phenotype; also recorded: variable abrogation of the suppressor phenotype

## N=C(N)NCCC[C@H](N)C(=O)O [L-arginine]
Added to cocultures
  effect on ascites-induced PMN-mediated suppression: did not reverse ascites-induced PMN-mediated suppression; also recorded: had no effect on T cell suppression

B1: DNase I: enzyme added to the cocultures to degrade NETs (protein, UniProt P24855 23-282, looked up)
Deoxyribonuclease-1: LKIAAFNIQTFGETKMSNATLVSYIVQILSRYDIALVQEVRDSHLTAVGKLLDNLNQDAPDTYHYVVSEPLGRNSYKERYLFVYRPDQVSAVDSYYYDDGCEPCGNDTFNREPAIVRFFSRFTEVREFAIVPLHAAPGDAVAEIDALYDVYLDVQEKWGLEDVMLMGDFNAGCSYVRPSQWSSIRLWTSPTFQWLIPDSADTTATPTHCAYDRIVVAGMLLRGAVVPDSALPFNFQAAYGLSDQLAQAISDHYPVEVMLK
Added to cocultures
  effect on ascites-induced PMN-mediated suppression: did not reverse ascites-induced PMN-mediated suppression; also recorded: had no effect on the PMN suppressor phenotype

B2: OmCI: peptide C5 inhibitor derived from the saliva of Ornithodoros moubata (protein, UniProt Q5YD59 19-168, looked up)
Complement inhibitor: DSESDCTGSEPVDAFQAFSEGKEAYVLVRSTDPKARDCLKGEPAGEKQDNTLPVMMTFKNGTDWASTDWTFTLDGAKVTATLGNLTQNREVVYDSQSHHCHVDKVEKEVPDYEMWMLDAGGLEVEVECCRQKLEELASGRNQMYPHLKDC
ASC pretreated 1 h with neutralizing Ab against C5 or C7 (0.5-1.0 μg) or OmCI (0.6-1.2 μM) prior to coculture
  effect on PMN suppressor phenotype: partially abrogated the PMN suppressor phenotype; also recorded: had a partial abrogating effect on T cell suppression

Reference: patent publication US20210161999A1, “COMPOSITIONS AND METHODS RELATED TO OVERCOMING INNATE IMMUNE BARRIERS TO CANCER IMMUNOTHERAPY” (Health Research, Inc., priority 2018, published 2021)
